According to patent US20110263693A1, “CELASTROL, GEDUNIN, AND DERIVATIVES THEREOF AS HSP90 INHIBITORS” (DANA-FARBER CANCER INSTITUTE, INC., priority 2006, published 2011):

Experiments:
[1] = test system: androgen signaling signature in LNCaP cells; test: Synergy with HSP90 inhibitors on the androgen signaling signature (isobologram); assay type: cell-based; conditions: 24 hr, isobologram analysis
Description: If celastrol and gedunin act on HSP90 function via a distinct mechanism from HSP90 ATP-binding site inhibition (Bagatell et al., 2005), they might act synergistically with existing HSP90 inhibitors. We therefore tested the combinatorial effects of these compounds with HSP90 inhibitors on HSP90 client signaling and viability. […] Celastrol and gedunin therefore act synergistically with existing modes of HSP90 ATP-binding site inhibition to inhibit HSP90 client signaling and viability in a cellular context, consistent with their inhibition of HSP90 via a distinct mechanism.
Adherent cell growth was measured by luminescent assay of ATP level (CellTiterGlo, Promega). LNCaP cells were grown in charcoal-stripped media for 2 days prior to simultaneous treatment with 1 nM R1881 and the relevant compound. Synergy was assessed by analyzing the IC50 of one drug over a range of concentrations of the other drug and vice versa. The resulting concentration pairs were visualized by isobologram (Gessner, 1995). Anchorage independence was measured by soft agar assay (Hahn et al., 1999). Compounds were added to both agar layers. Colonies were scored after 3 weeks.

[2] = target: T1, HSP90α (Homo sapiens, UniProt P07900); test: Geldanamycin competition assay (Cy3B-geldanamycin fluorescence polarization); assay type: binding; parameters: purchased Stressgen SPP776 / SPP-776; conditions: celastrol and gedunin at concentrations up to ~100 μM
Description: We first tested whether celastrol or gedunin could compete with Cy3B-geldanamycin for binding to the ATP-binding pocket of purified HSP90α by fluorescence polarization assay (Kim et al., 2004, Llauger-Bufi et al., 2003).
The geldanamycin competition assay was performed as described (He et al., 2006, Kim et al., 2004), except that Cy3B-geldanamycin rather than BODIPY-geldanamycin was used as described herein.
Measurements were taken in black 96-well microtiter plates (Coming #3650). The assay buffer (HFB) contained 20 mM HEPES (K) pH 7.3, 50 mM KCl, 5 mM MgCl2, 20 mM Na2MoO4, 0.01% NP40. Before each use, 0.1 mg/mL bovine gamma globulin (BGG) (Panvera Corporation, Madison, Wis.) and 2 mM DTT (Fisher Biotech, Fair Lawn, N.J.) were freshly added. GM-cy3B was synthesized as previously reported and was dissolved in DMSO to form 10 μM solutions. Cell lysates were prepared rupturing cellular membranes by freezing at −70° C. and dissolving the cellular extract in HFB with added protease and phosphotase inhibitors. Saturation curves were recorded in which GM-cy3B (3 nM) was treated with increasing amounts of cellular lysates.

[3] = test system: FLT3; test: Western blot of HSP90 client FLT3 level; assay type: cell-based, human; conditions: for protein level of FLT3: 24 hr, several cell lines, concentration-dependent
Description: To more broadly establish the effects of celastrol and gedunin on the HSP90 pathway, we tested whether these compounds decrease the protein levels of other HSP90 clients.
Celastrol (Calbiochem) and gedunin (Gaia Chemicals) were solubilized in DMSO. LNCaP.FGC cells (ATCC) were grown in RPMI 1640 (ATCC) with 10% FBS. Ba/F3 cells stably expressing human FLT3, EGFR, and BCR-ABL1 were grown in RPMI 1640, 10% FBS, and 2 ng/ml IL-3. SKBr3 cells were grown in a 1:1 DME:F12 plus 10% FBS.

[4] = target: T1, HSP90α; test: HSP90 ATP-binding assay (ATP-polyacrylamide pulldown from lysates of treated cells); assay type: cell-based; parameters: endogenous in cells; host or cells: LNCaP and K562; conditions: LNCaP and K562 cells treated 24 hr
Description: Given their inhibition of HSP90 clients, we next asked whether celastrol and gedunin affect HSP90 activity itself. To assess the effects on HSP90 activity within a cellular context, we treated LNCaP and K562 cells with celastrol or gedunin for 24 hr and subsequently tested the cellular HSP90's ATP-binding activity. ATP-binding activity was assayed by ATP-polyacrylamide pulldown of HSP90 from cell lysates, followed by western blot-based quantification (Bali et al., 2005). This assay identifies HSP90 inhibition, both direct and indirect, that alters HSP90 ATP-binding activity in cell lines (Bali et al., 2005, Soti et al., 2002). […] The decrease in ATP binding by HSP90 cannot be accounted for by changes in HSP90 level (FIG. 7E). Celastrol and gedunin therefore inhibit HSP90 activity itself in a cellular context, either directly or indirectly.
The ATP-binding assay was similar to that in previous reports (Bali et al., 2005, Soti et al., 2002). LNCaP and K562 cells were treated with celastrol and gedunin for 24 hr and then lysed in TNESV buffer (50 mM Tris, 2 mM EDTA, […], 1 mM activated sodium orthovanadate, 25 mM NaF, 1% Triton X-100 [pH 7.5]) for 30 min at 4° C. Lysates were spun for 30 min at 12,000 rpm at 4° C. […]

[5] = test system: LNCaP prostate cancer cell; test: Apoptosis induction in LNCaP cells; assay type: cell-based; conditions: at higher concentrations
Description: We also addressed whether celastrol and gedunin activity results in decreased cell growth consistent with inhibition of AR and other HSP90 clients. […] Below this concentration, an intermediate viability inhibition is seen.

[6] = test system: androgen signaling signature in LNCaP cells; test: GE-HTS androgen signaling signature assay / screen; conditions: LNCaP; for effect on the GE-HTS androgen signaling signature outside the screen: with and without 12 hours androgen pretreatment
[7] = test system: mouse models of arthritis; conditions: purified celastrol, 1-3 mg/kg daily; cited from earlier work
[8] = test system: Raf-1; test: Western blot of HSP90 client Raf-1 level; assay type: cell-based; conditions: LNCaP, 1.25 μM, 24 hours
[9] = target: hERG potassium channel (Homo sapiens, UniProt Q12809); conditions: by inhibiting hERG maturation (Sun et al., 2006); cited from earlier work
Sequence of hERG potassium channel (Q12809 whole entry): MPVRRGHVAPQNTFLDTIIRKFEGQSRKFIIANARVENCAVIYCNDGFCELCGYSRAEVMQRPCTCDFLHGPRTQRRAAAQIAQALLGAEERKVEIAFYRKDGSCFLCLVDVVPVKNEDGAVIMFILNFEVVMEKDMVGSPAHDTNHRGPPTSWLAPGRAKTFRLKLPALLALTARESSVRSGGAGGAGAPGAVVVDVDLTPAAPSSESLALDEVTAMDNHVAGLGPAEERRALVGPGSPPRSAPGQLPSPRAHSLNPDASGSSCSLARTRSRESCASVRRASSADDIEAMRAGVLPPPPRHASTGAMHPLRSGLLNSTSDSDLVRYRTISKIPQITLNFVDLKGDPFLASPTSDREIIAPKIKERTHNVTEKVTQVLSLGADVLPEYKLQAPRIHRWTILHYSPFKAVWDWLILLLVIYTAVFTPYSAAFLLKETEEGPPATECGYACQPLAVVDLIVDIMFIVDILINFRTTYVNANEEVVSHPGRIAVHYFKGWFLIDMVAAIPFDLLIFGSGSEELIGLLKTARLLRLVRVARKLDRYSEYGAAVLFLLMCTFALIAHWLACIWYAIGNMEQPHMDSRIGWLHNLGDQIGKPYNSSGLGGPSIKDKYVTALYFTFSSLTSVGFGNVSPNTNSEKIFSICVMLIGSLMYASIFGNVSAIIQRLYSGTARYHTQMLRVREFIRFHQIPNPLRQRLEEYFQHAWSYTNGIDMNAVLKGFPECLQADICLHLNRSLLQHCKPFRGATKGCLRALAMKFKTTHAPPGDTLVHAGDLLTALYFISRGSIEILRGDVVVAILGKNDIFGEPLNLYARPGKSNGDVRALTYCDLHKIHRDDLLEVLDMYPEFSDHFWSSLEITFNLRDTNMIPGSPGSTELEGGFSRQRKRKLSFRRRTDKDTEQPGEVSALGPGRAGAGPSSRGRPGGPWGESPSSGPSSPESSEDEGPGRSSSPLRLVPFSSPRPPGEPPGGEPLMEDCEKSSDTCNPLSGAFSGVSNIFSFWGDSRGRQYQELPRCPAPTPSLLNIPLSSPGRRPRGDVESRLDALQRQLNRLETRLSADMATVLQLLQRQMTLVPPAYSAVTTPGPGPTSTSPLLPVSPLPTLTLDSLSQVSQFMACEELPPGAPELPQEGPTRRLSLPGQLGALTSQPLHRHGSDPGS

| Structure (SMILES) | combined effect with geldanamycin and 17-AAG on the androgen signaling signature [1] | competition with Cy3B-geldanamycin for binding to the ATP-binding pocket of HSP90α [2] | protein level of FLT3 [3] | sensitivity of FLT3 internal tandem duplication (ITD) mutant to inhibition ([3]; Ba/F3 cells, relative to non-mutant) | ATP-binding activity of HSP90α [4] | apoptosis in LNCaP cells [5] | effect on the GE-HTS androgen signaling signature outside the screen [6] | bioactivity in mouse models of arthritis [7] | level of Raf-1 [8] | inhibition of the androgen signaling signature in the GE-HTS screen (strong / weak) ([6]; ~20 μM, 24 hr) | hERG potassium channel activity [9] |
| --- | --- | --- | --- | --- | --- | --- | --- | --- | --- | --- | --- |
| CC(=O)O[C@@H]1C[C@H]2C(C)(C)C(=O)C=C[C@]2(C)[C@H]2CC[C@@]3(C)[C@H](c4ccoc4)OC(=O)[C@H]4O[C@]43[C@@]21C [gedunin] | mild synergy | Neither celastrol nor gedunin significantly competed | lowered the protein levels | increased sensitivity | inhibited the ATP-binding activity | induce apoptosis | inhibit the GE-HTS androgen signaling signature in a concentration-dependent manner | – | – | – | – |
| CC1=C(O)C(=O)C=C2C1=CC=C1[C@@]2(C)CC[C@@]2(C)[C@@H]3C[C@](C)(C(=O)O)CC[C@]3(C)CC[C@]12C [celastrol] | mild synergy | Neither celastrol nor gedunin significantly competed | lowered the protein levels | – | inhibited the ATP-binding activity | induce apoptosis | inhibit the GE-HTS androgen signaling signature in a concentration-dependent manner | significant bioactivity | decreases the levels | strong inhibition | suppress hERG potassium channel activity |
